From patent publication US11135252B2, “Probiotic therapies for developmental disorders and other neurological disorders” (Baylor College of Medicine, priority 2016, dated 2021) come the findings set out here.

One assay has as its system MHFD offspring. Briefly: Three-chamber social test in MHFD offspring. Type of assay: in vivo, mice. The note with it: for preference for social novelty / sociability: intranasal oxytocin approximately 200 μg/kg, 30 min prior; for preference for social novelty (time interacting with novel vs familiar mouse) / sociability (time interacting with mouse vs empty cage): in drinking water from weaning for 4 weeks, 1×10^8 organisms/mouse/day. Here is the method: Crawley's three-chamber test for sociability and preference for social novelty was performed as described (Silverman et al., 2010). In brief, the mouse first experienced a 10-minute period of habituation during which it was allowed to freely explore a 60×40×23 cm Plexiglass arena divided into three equally sized, interconnected chambers (Left, Center, Right). Sociability was measured during a second ten-minute period in which the subject could interact either with an empty wire cup (Empty) or a wire cup containing an age and sex-matched stranger conspecific (Mouse 1). Time spent interacting (sniffing, crawling upon) with either the empty cup or the stranger mouse contained in the other cup as well as time spent in each chamber was recorded using the AnyMaze software, by independent observers. Empty cup placement in the Left or Right chamber during the Sociability period was counterbalanced between trials. Finally, preference for social novelty was assayed by introducing a second stranger mouse (Mouse 2) into the previously the empty wire cup. Time spent in each chamber as well as time spent interacting with either Mouse 1 or Mouse 2 was recorded using the automated AnyMaze software by independent observers. Lactobacillus reuteri MM4-1A (ATCC-PTA-6475) and Lactobacillus johnsonii (ATCC 33200) were cultured anaerobically in MRS broth in a 90% N2, 5% CO2, 5% H2 environment. L. reuteri was heat-killed by keeping the bacteria at 80° C. for 20 minutes (Wang et al., 2010). Bacterial viability was assessed by plating and the efficacy of the heat-kill procedure was confirmed by the absence of colony growth following plating. Cultures were centrifuged, washed, and resuspended in anaerobic solution (PBS) and frozen at −80° C. until use. PBS, live or heat-killed L. reuteri were added to the drinking water, which was changed daily to minimize dosage variability. Whereas the experimental group received live bacteria, one control group received identically prepared cultures of heat-killed bacteria. A second group of control mice received water treated with PBS alone. Live and heat-killed L. reuteri were supplied at a dosage of 1×10^8 organisms/mouse/day continuously in drinking water. Mice consumed the treated water ad libitum over the treatment period. The treated drinking water for each group was replaced daily two hours prior to the onset of the dark cycle to minimize variation in microbial exposure. Behavioral assays were initiated after 4-weeks of L. reuteri or control treatment. The protocol of the L. johnsonii preparation and administration matched the L. reuteri protocol. Fecal samples for sequencing and tissue used in the immunofluorescence studies were collected at the end of the treatment. Oxytocin was obtained from Tocris Bioscience (product 1910) and solubilized in 10% dimethyl sulfoxide (DMSO) in PBS. 10% DMSO in PBS was used as the vehicle control. Mice received oxytocin intranasally (at approximately 200 μg/kg) thirty minutes prior to behavior. 1.25 μl of oxytocin or vehicle solution was injected into each nostril from P10 pipette. Oxytocin dose was selected according to dosages reported to rescue social behavior in genetic models phenotypically expressing ASD-like behaviors (Penagarikano et al., 2015).

The subject of the next assay is VTA DA neurons. Briefly: Social interaction-induced LTP (AMPAR/NMDAR ratio) in VTA DA neurons of MHFD offspring. Conditions: for stranger interaction-evoked LTP in the VTA (AMPAR/NMDAR ratio): bacteria in drinking water, 24 hours after 10 min reciprocal interaction. In kind it is in vivo, mice. The source says:
Brain regions responding to naturally rewarding stimuli, including the ventral tegmental area (VTA) and the nucleus accumbens (NAc), are crucially involved in social behaviors (Dolen et al., 2013; Gunaydin et al., 2014; Huang and Hessler, 2008). In addition, oxytocin-expressing neurons in the PVN project to the VTA (Melis et al., 2007). Oxytocin activates VTA neurons in both mice and humans, influencing the processing of socially relevant cues (Gregory et al., 2015; Groppe et al., 2013; Tang et al., 2014) and oxytocin receptor blockade in the VTA prevents social attachment in rodents (Pedersen et al., 1994). Given that social stimulation can be particularly rewarding and triggers synaptic potentiation in VTA DA neurons of birds (Huang and Hessler, 2008), it was considered whether direct social interaction evokes long-term potentiation (LTP) of synaptic inputs to VTA DA neurons (FIGS. 20A-20C). To this end, AMPAR/NMDAR ratios were recorded of glutamatergic excitatory postsynaptic currents (EPSCs) in MRD and MHFD offspring 24 hours following a 10 min reciprocal interaction with either a stranger or a familiar mouse (FIG. 5A). In control MRD mice, social interaction with a stranger, but not a familiar mouse, triggered LTP in VTA DA neurons, as determined by an increase in AMPAR/NMDAR ratios (FIGS. 5B and 5D).
Recordings were performed as previously described (Ungless et al., 2001; Zhu et al., 2011) and the investigators were kept blind to treatment conditions. Briefly, mice were anesthetized with a mixture of ketamine (100 mg/kg), xylazine (10 mg/kg) and acepromazine (3 mg/kg). Horizontal slices (225-300 μm thick) containing the VTA were cut from the brains of C57BL/6J mice. Mice were transcardially perfused with an ice-cold, oxygenated solution containing (in mM) NaCl, 87; NaHCO3, 25; KCl, 2.5; NaH2PO4, 1.25; MgCl2, 7; CaCl2, 0.5; dextrose, 25; sucrose, 75. […] Data were obtained with a MultiClamp 700B amplifier, digitized at 20 kHz with a Digidata 1440A, recorded by Clampex 10 and analyzed with Clampfit 10 software (Molecular Devices). […] After establishing a gigaohm seal (>2 GΩ) and recording stable spontaneous firing in cell-attached, voltage clamp mode (−70 mV holding potential), cell phenotype was determined by measuring the width of the action potential and the presence of an Ih current. AMPAR/NMDAR ratios were calculated as previously described (Ungless et al., 2001). […]

Entries after “also recorded” stand apart in the source; their conditions may differ.

As to `CC[C@H](C)[C@@H]1NC(=O)[C@H](Cc2ccc(O)cc2)NC(=O)[C@@H](N)CSSC[C@@H](C(=O)N2CCC[C@H]2C(=O)N[C@@H](CC(C)C)C(=O)NCC(N)=O)NC(=O)[C@H](CC(N)=O)NC(=O)[C@H](CCC(N)=O)NC1=O` [oxytocin], the “preference for social novelty” value is “improved” with MHFD offspring and “restored” in the assay on MHFD offspring (listed as Oxytocin). Besides, the sociability entry with MHFD offspring was “improved sociability”; in the assay with MHFD offspring (listed as Oxytocin), “restored”. Also, the “social interaction-induced LTP in the VTA” value in the assay with VTA DA neurons (intranasal oxytocin alone, without social interaction) is “failed to rescue”; with VTA DA neurons (intranasal oxytocin approximately 200 μg/kg combined with stranger social interaction), “restored LTP; also recorded: rescued LTP”.

Consider “Lactobacillus reuteri MM4-1A (ATCC-PTA-6475) [L. reuteri]”, for which, in the assay on MHFD offspring, the “preference for social novelty (time interacting with novel vs familiar mouse)” value was “significantly improved” and the “sociability (time interacting with mouse vs empty cage)” value was “significantly improved sociability”. In the assay on MHFD offspring (listed as live L. reuteri), the “preference for social novelty (time interacting with novel vs familiar mouse)” value is “rescued” and the “sociability (time interacting with mouse vs empty cage)” value is recorded as “rescued sociability”. In the assay with MHFD offspring (in drinking water, 4 weeks), the “preference for social novelty (chamber containing Mouse 2, FIG. 16B)” value is on record as “improved” and the “sociability (chamber containing a mouse, FIG. 16A)” value is reported as “improved MHFD offspring sociability”. Moreover, the “stranger interaction-evoked LTP in the VTA (AMPAR/NMDAR ratio)” value in the assay on VTA DA neurons was “rescued stranger interaction-induced LTP”. Moreover, the “stranger interaction-evoked LTP in the VTA (AMPAR/NMDAR ratio)” value with VTA DA neurons (listed as live L. reuteri) was “restored stranger interaction-evoked LTP”.
